Test results as given in patent publication US20080280866A1, “Method of Treating or Sepsis” (priority 2004, published 2008).
Entries after “also recorded” stand apart in the source; their conditions may differ. Where two headings read alike, the source gives them in different places.

Tests used:
[1] = test system: SOC channels; conditions: HL-60 cells, values determined by Harper; cited from earlier work
[2] = test system: voltage-dependent L-type calcium channels; conditions: GH4C1 cells, values determined by Harper; cited from earlier work
[3] = test system: PMN SOC; conditions: cited from earlier work
[4] = test system: rat T/HS; test: Rat T/HS, post-shock treatment: lung MPO and Evans Blue dye leak; type: in vivo; conditions: IP after return of 10% of shed blood, estimated plasma level 30 μM; 3 hours after reperfusion; FIG. 1
Description: Male rats underwent standard T/HS. 4-[4-(4-Chloro-phenyl)-thiazol-2-ylamino]-phenol or N-propargyl-nitrendipine (estimated plasma level 30 μM for each) or vehicle were administered IP after the return of 10% of total shed blood to the animal. Different groups of animals (n=6/group) were sacrificed 3 hours after reperfusion for bronchoalveolar lavage and Evan's Blue dye leak assay, or to harvest the lungs for MPO assays (FIG. 1).
N=6 animals per condition, *p<0.01 for inter-group comparisons.

[5] = test system: PMN; test: Rat T/HS, post-shock treatment: PMN CD11b and respiratory burst by flow cytometry; type: in vivo; conditions: IP post-treatment, whole blood 3 hrs post reperfusion; for PMN CD11b expression: FIG. 2; for PMN priming for respiratory burst initiated by PMA: FIG. 3
Description: Male rats underwent T/HS with or without 4-[4-(4-chloro-phenyl)-thiazol-2-ylamino]-phenol or N-propargyl-nitrendipine administered IP in post-treatment as above. Small (200 μL) whole blood samples removed prior to shock and 3 hrs post reperfusion were assayed for PMN CD11b (FIG. 2) and respiratory burst (FIG. 3) by flow cytometry. […] Left histogram, preshock; Right histogram, 3 h post-shock; Center (dark) histogram, 3 h post-shock PMN from animal treated with the indicated drug during resuscitation. Representative flow histograms, n=3-4 per condition. P<0.01, ANOVA/Tukey's test for all inter-group comparisons. […] Representative flow histograms are arranged as in FIG. 2, n=3-4 per condition. P<0.01 by ANOVA/Tukey's test for all inter-group comparisons.

[6] = test system: p38 MAP kinase; test: Rat T/HS, post-shock treatment: Western blot of PMN phosphorylated p38 MAP kinase; type: in vivo; conditions: IP post-treatment; PMN lysates 3 hours after T/HS; FIG. 4
Description: The phosphorylation of p38-mitogen associated protein kinase [“p38 MAP kinase”] in the presence of inflammatory stimuli is a key cellular mechanism involved in irreversible neutrophil activation and post-shock organ injury. Male rats underwent T/HS with or without 4-[4-(4-chloro-phenyl)-thiazol-2-ylamino]-phenol or N-propargyl-nitrendipine administered IP in post-treatment as above. At the end of 3 hours post reperfusion, animals were sacrificed by exsanguination. PMN were isolated. Whole cell lysates were probed using specific antibodies for phosphorylated p38 MAP kinase. SOC inhibition via either strategy led to diminished activation. Lysates of rat PMN were sampled 3 hours after T/HS. Animals were treated with 4-[4-(4-chloro-phenyl)-thiazol-2-ylamino]-phenol or vehicle (DMSO) at the time of resuscitation. Positive controls (+) were rat PMN activated in vitro with fMLP. […] Thus SIP/SOC inhibition diminishes PMN p38 MAP kinase activation by T/HS.

[7] = type: in vivo
Description: In all the above experiments, rats undergoing T/HS were treated with SKI-2 or N-propargyl-nitrendipine given as an IP bolus just after the BP nadir. At this point, MAP has risen only from 30-40 to approximately 50 mmHg.

[8] = test system: rat traumatic, hemorrhagic shock model; test: Rat traumatic, hemorrhagic shock model, treatment prior to shock
Description: A rat traumatic, hemorrhagic shock model was used (32). […] Animals were then underwent T/HS, were resuscitated with shed blood and sacrificed by exsanguination 3 hours after resuscitation. We assayed lung injury as % Evans Blue dye leak, which provides a measure of the leakiness of lung capillaries. PMN activation was assessed as CD11b expression by flow cytometry (Table 1).

[9] = IP bolus just after the BP nadir

SMILES: C=CCN1C(C)=C(C(=O)OC)C(c2cccc([N+](=O)[O-])c2)C(C(=O)OCC)=C1C (stereo not shown) [Compound 34]
- IC50 [1]: 6.8 ± 1.8 µM
- IC50 [2]: 3.8 ± 1.8 µM

SMILES: CCOC(=O)C1=C(C)N(CC)C(C)=C(C(=O)OC)C1c1cccc([N+](=O)[O-])c1 (stereo not shown) [Compound 33]
- IC50 [1]: 6 µM
- IC50 [2]: 2.3 ± 0.4 µM

SMILES: COC(=O)C1=C(C)N(C)C(C)=C(C(=O)OC)C1c1cccc([N+](=O)[O-])c1 [Compound 30]
- IC50 [1]: 2.8 ± 0.03 µM
- IC50 [2]: 2 µM

SMILES: [Gd+3] [gadolinium (Gd3+), gadolinium]
- Concentration inhibiting PMN SOC [3]: low-mid nanomolar concentrations

SMILES: C#CCN1C(C)=C(C(=O)OC)C(c2cccc([N+](=O)[O-])c2)C(C(=O)OCC)=C1C (stereo not shown) [Compound 35, N-propargyl-nitrendipine]
- Capillary-alveolar leakage (Evans Blue dye leak) [4]: prevented PMN accumulation and subsequent capillary-alveolar leakage; also recorded: yielded the same effects
- Pulmonary PMN infiltration/accumulation (MPO assay) [4]: prevented PMN accumulation; also recorded: yielded the same effects
- PMN CD11b expression [5]: decreased CD11b expression almost to the level seen prior to shock
- PMN priming for respiratory burst initiated by PMA [5]: decreased PMN priming for respiratory burst initiated by PMA (phorbol 12-myristate 13-acetate) almost to the levels seen prior to shock
- PMN p38 MAP kinase phosphorylation/activation [6]: Attenuation of p38 MAP Kinase phosphorylation and activation was also seen
- Episodes of hypotension [7, 9]: No episodes of hypotension were seen
- Survival of the acute shock phase [7, 9]: all animals survived the acute shock phase
- IC50 [1]: 1.7 ± 1.3 µM
- IC50 [2]: 2.1 ± 0.2 µM
- Attenuation of lung injury ([8]; pre-treatment IP, target concentration 30 μm): Identical attenuation of lung injury as in Example 1
- Lung PMN infiltration by myeloperoxidase (MPO) assay ([8]; pre-treatment IP, data not shown): diminished lung PMN infiltration

SMILES: CCOC(=O)C1=C(C)N(C)C(C)=C(C(=O)OC)C1c1cccc([N+](=O)[O-])c1 (stereo not shown) [Compound 32]
- IC50 [1]: 2.6 ± 1.1 µM
- IC50 [2]: 1.3 ± 0.3 µM

SMILES: Oc1ccc(Nc2nc(-c3ccc(Cl)cc3)cs2)cc1 [SKI-2, 4-[4-(4-Chloro-phenyl)-thiazol-2-ylamino]-phenol]
- Capillary-alveolar leakage (Evans Blue dye leak) [4]: prevented PMN accumulation and subsequent capillary-alveolar leakage; also recorded: inhibits PMN mediated lung injury
- Pulmonary PMN infiltration/accumulation (MPO assay) [4]: prevented PMN accumulation; also recorded: inhibits PMN mediated lung injury
- PMN CD11b expression [5]: decreased CD11b expression almost to the level seen prior to shock
- PMN priming for respiratory burst initiated by PMA [5]: decreased PMN priming for respiratory burst initiated by PMA (phorbol 12-myristate 13-acetate) almost to the levels seen prior to shock
- PMN p38 MAP kinase phosphorylation/activation [6]: attenuation of MAPK activation
- Episodes of hypotension [7, 9]: No episodes of hypotension were seen
- Survival of the acute shock phase ([7]; rat, in vivo, ip): all animals survived the acute shock phase
- CD11b (MFI) ([8]; PMN activation by flow cytometry, IP at laparotomy prior to shock, estimated plasma level 30 μM, 3 hours after resuscitation): 225 ± 18 MFI
- Evans Blue (%) ([8]; lung injury as % Evans Blue dye leak, IP prior to shock, estimated plasma level 30 μM, 3 hours after resuscitation): 3.8 ± 1.7 %
- Hemodynamic effects ([8]; pre-treatment IP): No unexpected hemodynamic effects were noted
- Phlebotomy volumes ([8]; treatment vs placebo groups, pre-treatment IP): identical in the treatment and placebo groups
